Test results taken from publication PMC6990405, “Synthesis and Structure–Activity relationship of 1-(5-isoquinolinesulfonyl)piperazine analogues as inhibitors of Mycobacterium tuberculosis IMPDH” (European Journal of Medicinal Chemistry, 2019).
In brackets after ≈: the same amount, converted by molar mass. Where two headings read alike, the source gives them in different places.

Legend:
[1] = test system: M. tuberculosis; parameters: method as in PMID 20934382; settings: cited from earlier work
[2] = molecular target: Mycobacterium thermoresistible (Mth) IMPDH ΔCBS (Mycobacterium thermoresistible) (UniProt G7CNL4); test: crystal structure
[3] = test system: wild-type M. tuberculosis strain H37Rv; test: microbe, parasite or virus in culture; type: cell-based; settings: for MIC90: wild-type M. tuberculosis H37Rv, read-out: MIC90 against WT
[4] = molecular target: T1, Mtb IMPDH (Mycobacterium tuberculosis, UniProt P9WKI7); test: IMPDH biochemical assay (inhibition of Mtb GuaB2); settings: Mtb IMPDH (GuaB2) enzyme
T1 construct: made in house

[5] = Mycobacterium tuberculosis, H37RV

In the case of `O=S(=O)(c1cccc2cnccc12)N1CCNCC1` [5-(piperazin-1-ylsulfonyl)isoquinoline], the “MIC against M. tuberculosis” value [1] is listed as “no MIC”.

“Mycobacterium thermoresistible (Mth) IMPDH ΔCBS (from UniProt G7CNL4 1-513) (enzyme)” gave a stoichiometry N [2] of 4.

Work on `Cc1ccc(NC(=O)N2CCN(S(=O)(=O)c3cccc4cnccc34)CC2)cc1Cl` [Compound 38, N-(3-chloro-4-methylphenyl)-4-(isoquinolin-5-ylsulfonyl)piperazine-1-carboxamide] yielded an MIC90 [3, 5] of 100 µM (≈ 44.5 µg/mL) and an IC50 [4] of 1600 ± 200 nM.

`O=C(C1CCCCC1)N1CCN(S(=O)(=O)c2ccc3ccccc3c2)CC1` [Compound 8, Cyclohexyl[4-(naphthalene-2-sulfonyl)piperazin-1-yl]methanone] showed an MIC90 [3, 5] greater than 100 µM and an IC50 [4] of 1600 ± 100 nM.

In the case of `Cc1ccc(NC(=O)N2CCN(S(=O)(=O)c3cccc4cnccc34)CC2)c([N+](=O)[O-])c1` [Compound 39, 4-(isoquinolin-5-ylsulfonyl)-N-(4-methyl-2-nitrophenyl)piperazine-1-carboxamide], the MIC90 [3] is reported as 25 µM (≈ 11.4 µg/mL) and the IC50 [4] is reported as 600 ± 30 nM.

`COc1cccc(CC(=O)N2CCN(S(=O)(=O)c3cccc4cnccc34)CC2)c1` [Compound 26, 1-[4-(isoquinoline-5-sulfonyl)piperazin-1-yl]-2-(3-methoxyphenyl)ethan-1-one] showed an MIC90 [3, 5] of 250 µM (≈ 106 µg/mL) and an IC50 [4] of 2600 ± 200 nM.

`O=C(Nc1ccc(Cl)c(C(F)(F)F)c1)N1CCN(S(=O)(=O)c2cccc3cnccc23)CC1` [Compound 34, N-(4-chloro-3-(trifluoromethyl)phenyl)-4-(isoquinolin-5-ylsulfonyl)piperazine-1-carboxamide] showed an MIC90 [3, 5] of 25 µM (≈ 12.5 µg/mL) and an IC50 [4] of 160 ± 100 nM.

Compound `O=C(Nc1ccc(Cl)c([N+](=O)[O-])c1)N1CCN(S(=O)(=O)c2cccc3cnccc23)CC1` [Compound 35, N-(4-chloro-3-nitrophenyl)-4-(isoquinolin-5-ylsulfonyl)piperazine-1-carboxamide] has an MIC90 [3, 5] of 12.5 µM (≈ 5.95 µg/mL) and an IC50 [4] of 5600 ± 200 nM.

Compound `O=C(C1CCCCC1)N1CCN(S(=O)(=O)c2cccc3cnccc23)CC1` [Compound 1, Cyclohexyl[4-(isoquinoline-5-sulfonyl)piperazin-1-yl]methanone] has an MIC90 [3, 5] of 2 µM (≈ 0.775 µg/mL) and an IC50 [4] of 100 ± 10 nM.

Compound `O=C(Cc1ccc(F)cc1)N1CCN(S(=O)(=O)c2cccc3cnccc23)CC1` [Compound 29, 2-(4-fluorophenyl)-1-(4-(isoquinolin-5-ylsulfonyl)piperazin-1-yl)ethan-1-one] has an MIC90 [3, 5] of 25 µM (≈ 10.3 µg/mL) and an IC50 [4] of 680 ± 50 nM.

`O=C(C1CCCCC1)N1CCN(S(=O)(=O)c2cccc3ccccc23)CC1` [Compound 7, Cyclohexyl[4-(naphthalene-1-sulfonyl)piperazin-1-yl]methanone] showed an MIC90 [3, 5] greater than 100 µM and an IC50 [4] of 3000 ± 100 nM.

For `O=C(C1CCCCC1)N1CCC(NS(=O)(=O)c2cccc3cnccc23)CC1` [Compound 5, N-[1-(cyclohexanecarbonyl)piperidin-4-yl]isoquinoline-5-sulfonamide], the MIC90 [3, 5] was greater than 100 µM and the IC50 [4] was 14700 ± 300 nM.

In the case of `O=S(=O)(c1cccc2cnccc12)N1CCN(C(=S)Nc2ccc3c(c2)OCO3)CC1` [Compound 42, N-(benzo[d][1,3]dioxol-5-yl)-4-(isoquinolin-5-ylsulfonyl)piperazine-1-carbothioamide], the MIC90 [3, 5] is reported as 50 µM (≈ 22.8 µg/mL), the “fold reduction in whole-cell activity” value ([3]; relative to compound 41) is reported as 8 fold and the IC50 [4] is reported as 1100 ± 100 nM.

Compound `CC1CN(S(=O)(=O)c2cccc3cnccc23)CCN1C(=O)C1CCCCC1` (stereo not drawn) [Compound 3, Cyclohexyl[4-(isoquinoline-5-sulfonyl)-2-methylpiperazin-1-yl]methanone] has an MIC90 [3, 5] of 100 µM (≈ 40.2 µg/mL) and an IC50 [4] greater than 100000 nM.
